Reference: patent US11739070B2, “C5A receptor modulators” (IDORSIA PHARMACEUTICALS LTD, priority 2018, dated 2023)

molecular target: T1, C5AR1 (Homo sapiens, UniProt P21730); test: hC5a DISCO IC50 assay (PathHunter beta-arrestin, antagonist mode); type: cell-based; conditions: CHO-K1 C5AR1 beta-arrestin cell line; antagonist vs 1-10 nM C5a agonist; geometric mean values; read-out: C5aR IC50
T1 construct: host or cells: CHO-K1
T1 sequence (P21730 1-350): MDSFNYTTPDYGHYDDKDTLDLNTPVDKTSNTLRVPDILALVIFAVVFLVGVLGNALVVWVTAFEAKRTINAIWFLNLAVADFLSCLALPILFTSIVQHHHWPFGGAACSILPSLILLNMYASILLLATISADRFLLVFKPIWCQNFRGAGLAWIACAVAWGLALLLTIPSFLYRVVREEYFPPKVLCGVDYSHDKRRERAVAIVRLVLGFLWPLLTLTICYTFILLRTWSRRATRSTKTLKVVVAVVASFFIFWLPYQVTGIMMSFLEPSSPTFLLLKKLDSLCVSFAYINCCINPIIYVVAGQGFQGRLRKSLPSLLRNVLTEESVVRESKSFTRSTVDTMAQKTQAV
How it was run: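 Antagonist added first, then 1-10 nM C5a agonist; cells incubated 1.5 h at 37 °C. Beta-arrestin signal developed with PathHunter detection reagent, 45 min at RT. IC50 in nmol/l from serial antagonist dilutions, reported as geometric mean of several measurements.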

Row | SMILES | IC50
1 | COc1ncncc1Cn1c(=O)n([C@@H]2CCN(c3c(F)cccc3C#N)C2)c2cccc(OC)c21 [Example 114, 3-Fluoro-2-{(R)-3-[4-methoxy-3-(4-methoxy-pyrimidin-5-ylmethyl)-2-oxo-2,3-dihydro-benzoimidazol-1-yl]-pyrrolidin-1-yl}-benzonitrile] | 1540 nM
2 | COc1cccc2c1n(Cc1ccccc1C(F)(F)F)c(=O)n2[C@@H]1CCN(c2c(F)cccc2CN2CCCC2)C1 [Example 116, 1-[(R)-1-(2-Fluoro-6-pyrrolidin-1-ylmethyl-phenyl)-pyrrolidin-3-yl]-4-methoxy-3-(2-trifluoromethyl-benzyl)-1,3-dihydro-benzoimidazol-2-one] | 165 nM
3 | COc1cccc2c1n(Cc1cncnc1C(F)(F)F)c(=O)n2C1CCN(c2c(F)cccc2C#N)CC1 [Example 117, 3-Fluoro-2-{4-[4-methoxy-2-oxo-3-(4-trifluoromethyl-pyrimidin-5-ylmethyl)-2,3-dihydro-benzoimidazol-1-yl]-piperidin-1-yl}-benzonitrile] | 308 nM
4 | Cc1cccc(C)c1N1CC[C@@H](n2c(=O)n(Cc3ccccc3C(F)(F)F)c3c(NCCO)nccc32)C1 [Example 118, 1-[(R)-1-(2,6-Dimethyl-phenyl)-pyrrolidin-3-yl]-4-(2-hydroxy-ethylamino)-3-(2-trifluoromethyl-benzyl)-1,3-dihydro-imidazo[4,5-c]pyridin-2-one] | 201 nM
5 | Cc1cccc(F)c1N1CC[C@@H](n2c(=O)n(Cc3ccccc3C(F)(F)F)c3c(OCCN(C)C)nccc32)C1 [Example 120, 4-(2-Dimethylamino-ethoxy)-1-[(R)-1-(2-fluoro-6-methyl-phenyl)-pyrrolidin-3-yl]-3-(2-trifluoromethyl-benzyl)-1,3-dihydro-imidazo[4,5-c]pyridin-2-one] | 659 nM
6 | Cc1cccc(F)c1N1CC[C@@H](n2c(=O)n(Cc3ccccc3C(F)(F)F)c3c(OCCN4CCOCC4)nccc32)C1 [Example 121, 1-[(R)-1-(2-Fluoro-6-methyl-phenyl)-pyrrolidin-3-yl]-4-(2-morpholin-4-yl-ethoxy)-3-(2-trifluoromethyl-benzyl)-1,3-dihydro-imidazo[4,5-c]pyridin-2-one] | 270 nM
7 | Cc1cccc(F)c1N1CC[C@@H](n2c(=O)n(Cc3ccccc3C(F)(F)F)c3c(OC4CCN(C(=O)OC(C)(C)C)CC4)nccc32)C1 [Example 122, 4-[1-[(R)-1-(2-Fluoro-6-methyl-phenyl)-pyrrolidin-3-yl]-2-oxo-3-(2-trifluoromethyl-benzyl)-2,3-dihydro-1H-imidazo[4,5-c]pyridin-4-yloxy]-piperidine-1-carboxylic acid tert-butyl ester] | 509 nM
8 | Cc1cccc(F)c1N1CC[C@@H](n2c(=O)n(Cc3ccccc3C(F)(F)F)c3c(OC4CCNCC4)nccc32)C1 [Example 124, 1-[(R)-1-(2-Fluoro-6-methyl-phenyl)-pyrrolidin-3-yl]-4-(piperidin-4-yloxy)-3-(2-trifluoromethyl-benzyl)-1,3-dihydro-imidazo[4,5-c]pyridin-2-one] | 5220 nM
9 | Cc1cccc(F)c1N1CC[C@@H](n2c(=O)n(Cc3ccccc3C(F)(F)F)c3c(OCC(O)CO)nccc32)C1 (stereo partly drawn) [Example 128, 4-(2,3-Dihydroxy-propoxy)-1-[(R)-1-(2-fluoro-6-methyl-phenyl)-pyrrolidin-3-yl]-3-(2-trifluoromethyl-benzyl)-1,3-dihydro-imidazo[4,5-c]pyridin-2-one] | 207 nM
10 | Cc1cccc(F)c1N1CC[C@@H](n2c(=O)n(Cc3ccccc3C(F)(F)F)c3c(OC4CCN(C)C4)nccc32)C1 (stereo partly drawn) [Example 130, 1-[(R)-1-(2-Fluoro-6-methyl-phenyl)-pyrrolidin-3-yl]-4-(1-methyl-pyrrolidin-3-yloxy)-3-(2-trifluoromethyl-benzyl)-1,3-dihydro-imidazo[4,5-c]pyridin-2-one] | 3910 nM
11 | COc1cccc2c1n(Cc1ccccc1C(F)(F)F)c(=O)n2[C@@H]1CCN(c2c(F)cccc2CN2CCN(C)CC2)C1 [Example 132, 1-{(R)-1-[2-Fluoro-6-(4-methyl-piperazin-1-ylmethyl)-phenyl]-pyrrolidin-3-yl}-4-methoxy-3-(2-trifluoromethyl-benzyl)-1,3-dihydro-benzoimidazol-2-one] | 314 nM

Stronger by IC50, values ahead:

Row | IC50 | SMILES
12 | 21 nM | COc1cccc2c1n(Cc1ccccc1C(F)(F)F)c(=O)n2[C@@H]1CCN(c2c(F)cccc2CN2CCOCC2)C1 [Example 115, 1-[(R)-1-(2-Fluoro-6-morpholin-4-ylmethyl-phenyl)-pyrrolidin-3-yl]-4-methoxy-3-(2-trifluoromethyl-benzyl)-1,3-dihydro-benzoimidazol-2-one]
13 | 12 nM | Cc1cccc(C)c1N1CC[C@@H](n2c(=O)n(Cc3ccccc3C(F)(F)F)c3c(OCCO)nccc32)C1 [Example 119, 1-[(R)-1-(2,6-Dimethyl-phenyl)-pyrrolidin-3-yl]-4-(2-hydroxy-ethoxy)-3-(2-trifluoromethyl-benzyl)-1,3-dihydro-imidazo[4,5-c]pyridin-2-one]
14 | 42 nM | Cc1cccc(F)c1N1CC[C@@H](n2c(=O)n(Cc3ccccc3C(F)(F)F)c3c(N(C)CCO)nccc32)C1 [Example 123, 1-[(R)-1-(2-Fluoro-6-methyl-phenyl)-pyrrolidin-3-yl]-4-[(2-hydroxy-ethyl)-methyl-amino]-3-(2-trifluoromethyl-benzyl)-1,3-dihydro-imidazo[4,5-c]pyridin-2-one]
15 | 124 nM | Cc1cccc(F)c1N1CC[C@@H](n2c(=O)n(Cc3ccccc3C(F)(F)F)c3c(OCC4COC(C)(C)O4)nccc32)C1 (stereo partly drawn) [Example 125, 4-(2,2-Dimethyl-[1,3]dioxolan-4-ylmethoxy)-1-[(R)-1-(2-fluoro-6-methyl-phenyl)-pyrrolidin-3-yl]-3-(2-trifluoromethyl-benzyl)-1,3-dihydro-imidazo[4,5-c]pyridin-2-one]
16 | 20 nM | COc1cccc2c1n(Cc1ccccc1C(F)(F)F)c(=O)n2[C@@H]1CCN(c2c(F)cccc2CC=O)C1 [Example 126, (3-Fluoro-2-{(R)-3-[4-methoxy-2-oxo-3-(2-trifluoromethyl-benzyl)-2,3-dihydro-benzoimidazol-1-yl]-pyrrolidin-1-yl}-phenyl)-acetaldehyde]
17 | 17 nM | Cc1cccc(F)c1N1CC[C@@H](n2c(=O)n(Cc3ccccc3C(F)(F)F)c3c(OC4COC4)nccc32)C1 [Example 127, 1-[(R)-1-(2-Fluoro-6-methyl-phenyl)-pyrrolidin-3-yl]-4-(oxetan-3-yloxy)-3-(2-trifluoromethyl-benzyl)-1,3-dihydro-imidazo[4,5-c]pyridin-2-one]
18 | 53 nM | Cc1cccc(F)c1N1CC[C@@H](n2c(=O)n(Cc3ccccc3C(F)(F)F)c3c(N4CCOCC4)nccc32)C1 [Example 129, 1-[(R)-1-(2-Fluoro-6-methyl-phenyl)-pyrrolidin-3-yl]-4-morpholin-4-yl-3-(2-trifluoromethyl-benzyl)-1,3-dihydro-imidazo[4,5-c]pyridin-2-one]
19 | 53 nM | COc1cccc2c1n(Cc1ccccc1C(F)(F)F)c(=O)n2[C@@H]1CCN(c2c(F)cccc2CCN2CCOCC2)C1 [Example 131, 1-{(R)-1-[2-Fluoro-6-(2-morpholin-4-yl-ethyl)-phenyl]-pyrrolidin-3-yl}-4-methoxy-3-(2-trifluoromethyl-benzyl)-1,3-dihydro-benzoimidazol-2-one]
